Experimental data from patent publication US20170022171A1, “2,5-DISUBSTITUTED CYCLOPENTANECARBOXYLIC ACIDS AND THEIR USE” (Bayer Pharma Aktiengesellschaft, priority 2014, published 2017).

Assays:
Format in all cases: biochemical
MMP-3 = molecular target: T1, MMP-3 (Homo sapiens, UniProt P08254); experiment: In vitro MMP-3 inhibition test
T1 construct: purchased R&D Systems 513-MP
Summary of the method: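 APMA-activated recombinant MMP-3 (e.g. 2 nM final) preincubated with compound in 50 mM Tris/HCl pH 7.5, 10 mM CaCl2, 150 mM NaCl, 0.05% Brij-35; quenched Mca/Dnp peptide substrate (e.g. 10 μM) started the reaction. Fluorescence (ex 320/em 410 nm) followed e.g. 120 min at 32° C; IC50 at 50% signal.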

MMP-16 = molecular target: T2, MMP-16 (Homo sapiens, UniProt P51512); experiment: In vitro MMP-16 inhibition test
T2 construct: purchased R&D Systems 1785-MP
T2 sequence (P51512 120-564 limits assumed): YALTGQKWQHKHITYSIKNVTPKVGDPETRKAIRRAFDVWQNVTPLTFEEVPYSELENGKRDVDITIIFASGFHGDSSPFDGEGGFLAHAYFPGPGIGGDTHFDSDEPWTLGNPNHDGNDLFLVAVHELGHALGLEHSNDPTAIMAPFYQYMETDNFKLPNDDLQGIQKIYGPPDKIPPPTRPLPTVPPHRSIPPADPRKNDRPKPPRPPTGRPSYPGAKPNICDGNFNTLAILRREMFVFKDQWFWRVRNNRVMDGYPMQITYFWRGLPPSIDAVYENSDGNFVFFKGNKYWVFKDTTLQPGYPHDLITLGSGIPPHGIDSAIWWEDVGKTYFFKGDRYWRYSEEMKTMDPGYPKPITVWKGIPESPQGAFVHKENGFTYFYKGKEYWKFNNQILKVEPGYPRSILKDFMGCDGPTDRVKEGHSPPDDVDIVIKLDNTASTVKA
Summary of the method: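 Furin-activated recombinant MMP-16 (e.g. 1 nM) in 50 mM Tris/HCl pH 7.5, 10 mM CaCl2, 150 mM NaCl and 0.05% Brij-35 received compound in DMSO (e.g. 1 nM–30 μM), then 5 μM Mca-Lys-Pro-Leu-Gly-Leu-Dpa(Dnp)-Ala-Arg-NH2. Fluorescence (ex 320/em 410 nm) was followed, e.g. over 120 min at 32 °C. IC50 is the concentration halving the signal.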

MMP-13 = molecular target: T3, MMP-13 (Homo sapiens, UniProt P45452); experiment: In vitro MMP-13 inhibition test
T3 construct: purchased R&D Systems 511-MP
Summary of the method: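 APMA-activated recombinant MMP-13 (e.g. 0.1 nM final) in 50 mM Tris/HCl pH 7.5, 10 mM CaCl2, 150 mM NaCl, 0.05% Brij-35 with Mca-PLGL-Dpa(Dnp)-AR-NH2 substrate (e.g. 10 μM final). Fluorescence (ex 320/em 410 nm) followed e.g. 120 min at 32 °C; IC50 at 50% signal.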

MMP-10 = molecular target: T4, MMP-10 (Homo sapiens, UniProt P09238); experiment: In vitro MMP-10 inhibition test
T4 construct: purchased R&D Systems 910-MP
T4 sequence (P09238 99-476): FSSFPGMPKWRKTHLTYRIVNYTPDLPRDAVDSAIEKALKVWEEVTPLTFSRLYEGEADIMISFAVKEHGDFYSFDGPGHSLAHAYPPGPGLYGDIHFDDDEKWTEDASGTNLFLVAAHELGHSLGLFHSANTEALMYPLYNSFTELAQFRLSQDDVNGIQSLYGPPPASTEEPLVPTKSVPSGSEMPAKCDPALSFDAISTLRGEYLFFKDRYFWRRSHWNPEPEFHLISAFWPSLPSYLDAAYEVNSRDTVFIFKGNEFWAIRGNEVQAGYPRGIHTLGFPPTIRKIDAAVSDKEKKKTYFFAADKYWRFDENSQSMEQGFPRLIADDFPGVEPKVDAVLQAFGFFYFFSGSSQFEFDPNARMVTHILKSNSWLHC
Summary of the method: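 APMA-activated recombinant MMP-10 (final e.g. 2 nM) with quenched Mca-Arg-Pro-Lys-Pro-Val-Glu-Nval-Trp-Arg-Lys(Dnp)-NH2 substrate (final e.g. 10 μM) in 50 mM Tris/HCl pH 7.5, 10 mM CaCl2, 150 mM NaCl, 0.05% Brij-35. Fluorescence (ex 320/em 410 nm) followed e.g. 120 min at 32 °C. IC50 at 50% signal.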

MMP-8 = molecular target: T5, MMP-8 (Homo sapiens, UniProt P22894); experiment: In vitro MMP-8 inhibition test
T5 construct: purchased R&D Systems 908-MP
T5 sequence (P22894 101-467): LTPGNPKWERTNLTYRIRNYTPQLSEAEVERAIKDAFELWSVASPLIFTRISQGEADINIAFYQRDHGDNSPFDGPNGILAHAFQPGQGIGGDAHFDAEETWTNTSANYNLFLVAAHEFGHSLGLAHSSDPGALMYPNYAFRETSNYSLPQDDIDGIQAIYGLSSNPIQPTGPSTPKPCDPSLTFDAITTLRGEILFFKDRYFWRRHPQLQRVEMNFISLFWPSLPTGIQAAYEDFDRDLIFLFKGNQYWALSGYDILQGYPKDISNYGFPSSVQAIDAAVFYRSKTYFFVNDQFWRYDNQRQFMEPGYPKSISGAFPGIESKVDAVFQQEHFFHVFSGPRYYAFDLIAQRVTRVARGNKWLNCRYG
Summary of the method: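 APMA-activated recombinant MMP-8 (final e.g. 0.5 nM) preincubated with compound in DMSO (e.g. 1 nM–30 μM) in 50 mM Tris/HCl pH 7.5, 10 mM CaCl2, 150 mM NaCl, 0.05% Brij-35. Reaction started with quenched Mca-Pro-Leu-Gly-Leu-Dpa(Dnp)-Ala-Arg-NH2 substrate (e.g. 10 μM); fluorescence (ex 320/em 410 nm) followed e.g. 120 min at 32° C; IC50 at 50% signal.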

T1 sequence (P08254 100-477): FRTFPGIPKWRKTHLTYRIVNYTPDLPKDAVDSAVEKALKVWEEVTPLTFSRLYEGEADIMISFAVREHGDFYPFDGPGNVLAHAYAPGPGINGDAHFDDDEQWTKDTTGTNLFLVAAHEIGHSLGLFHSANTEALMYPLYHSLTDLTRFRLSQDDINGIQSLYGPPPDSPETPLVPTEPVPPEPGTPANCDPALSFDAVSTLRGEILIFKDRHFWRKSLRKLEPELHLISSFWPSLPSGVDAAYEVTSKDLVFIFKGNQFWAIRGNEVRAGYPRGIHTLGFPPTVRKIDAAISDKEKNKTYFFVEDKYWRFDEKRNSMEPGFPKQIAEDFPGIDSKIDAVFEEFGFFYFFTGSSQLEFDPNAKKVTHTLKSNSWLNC

`Cc1ccc2nnn(C[C@H]3CC[C@@H](C(=O)c4ccc(OCc5cccc(OC(F)(F)F)c5)cc4)[C@@H]3C(=O)O)c(=O)c2c1` (single isomer, unassigned) [Example 110, (+)-(1RS,2SR,5RS)-2-[(6-Methyl-4-oxo-1,2,3-benzotriazin-3(4H)-yl)methyl]-5-(4-{[3-(trifluoromethoxy)benzyl]oxy}benzoyl)cyclopentanecarboxylic acid] was tested, and the IC50 (MMP-3) was 920 nM, the IC50 (MMP-16) was 2100 nM and the IC50 (MMP-13) was 260 nM. For the same compound, the IC50 (MMP-10) was 130 nM and the IC50 (MMP-8) was 120 nM.

In the case of `Cc1ccc2nnn(C[C@H]3CC[C@@H](C(=O)c4ccc(OCC5CCCCC5)cc4)[C@@H]3C(=O)O)c(=O)c2c1` (single isomer, unassigned) [Example 117, (+)-(1RS,2RS,5SR)-2-[4-(Cyclohexylmethoxy)benzoyl]-5-[(6-methyl-4-oxo-1,2,3-benzotriazin-3(4H)-yl)methyl]cyclopentanecarboxylic acid], the IC50 (MMP-3) is reported as 110 nM, the IC50 (MMP-16) is reported as 260 nM and the IC50 (MMP-13) is reported as 74 nM. The IC50 (MMP-10) was 26 nM and the IC50 (MMP-8) was 4 nM.

`CCCCCCOc1ccc(C(=O)[C@@H]2CC[C@H](Cn3nnc4ccc(C)cc4c3=O)[C@H]2C(=O)O)cc1` (single isomer, unassigned) [Example 121, (+)-(1RS,2RS,5SR)-2-[4-(Hexyloxy)benzoyl]-5-[(6-methyl-4-oxo-1,2,3-benzotriazin-3(4H)-yl)methyl]cyclopentanecarboxylic acid] was tested, and the IC50 (MMP-3) was 410 nM, the IC50 (MMP-16) was 1900 nM and the IC50 (MMP-13) was 300 nM. The IC50 (MMP-10) was 93 nM and the IC50 (MMP-8) was 18 nM.

`COC(=O)Nc1cccc(COc2ccc(C(=O)[C@@H]3CC[C@H](Cn4nnc5ccc(C(F)(F)F)cc5c4=O)[C@H]3C(=O)O)cc2)c1` (stereo in doubt) [Example 31, (+)-(1RS,2RS,5SR)-2-[4-({3-[(Methoxycarbonyl)amino]benzyl}oxy)benzoyl]-5-{[4-oxo-6-(trifluoromethyl)-1,2,3-benzotriazin-3(4H)-yl]methyl}cyclopentanecarboxylic acid] was tested, and the IC50 (MMP-3) was 280 nM, the IC50 (MMP-16) was 890 nM and the IC50 (MMP-13) was 190 nM. For the same compound, the IC50 (MMP-10) was 41 nM and the IC50 (MMP-8) was 9.1 nM.

With “(+)-(1RS,2RS,5SR)-2-{4-[(3,4-Dichlorobenzyl)oxy]benzoyl}-5-{[4-oxo-6-(trifluoromethyl)-1,2,3-benzotriazin-3(4H)-yl]methyl}cyclopentanecarboxylic acid [Example 28]” the IC50 (MMP-3) was 250 nM, the IC50 (MMP-16) was 2200 nM and the IC50 (MMP-13) was 620 nM. It also gave an IC50 (MMP-10) of 130 nM and an IC50 (MMP-8) of 43 nM.

“(+)-(1RS,2RS,5SR)-2-{4-[Cyclohexyl)methyl)sulphanyl]benzoyl}-5-{[4-oxo-6-(trifluoromethyl)-1,2,3-benzotriazin-3(4H)-yl]methyl}cyclopentanecarboxylic acid [Example 86]” gave an IC50 (MMP-3) of 1300 nM, an IC50 (MMP-16) of 14000 nM and an IC50 (MMP-13) of 6600 nM. It also gave an IC50 (MMP-10) of 160 nM and an IC50 (MMP-8) of 150 nM.

In the case of “(+)-(1RS,2SR,5RS)-2-{[4-Oxo-6-(trifluoromethyl)-1,2,3-benzotriazin-3(4H)-yl]methyl}-5-{4-[(2-phenylethy)sulphanyl]benzoyl}cyclopentanecarboxylic acid [Example 83]”, the IC50 (MMP-3) is reported as 450 nM, the IC50 (MMP-16) is reported as over 40000 nM and the IC50 (MMP-13) is reported as 2800 nM. The IC50 (MMP-10) was 120 nM and the IC50 (MMP-8) was 260 nM.
